# Source: US8609672B2, “Piperazinylpyrimidine analogues as protein kinase inhibitors” (University of the Pacific, priority 2010, dated 2013)
# Read-outs that look alike come from different tables or passages of the source.
# Legend:
# [1] = target: KIT (Homo sapiens, UniProt P10721); settings: cited from earlier work
# [2] = KIT wild-type, reference kinase inhibitors, from literature
# Sequence of KIT (P10721 26-976): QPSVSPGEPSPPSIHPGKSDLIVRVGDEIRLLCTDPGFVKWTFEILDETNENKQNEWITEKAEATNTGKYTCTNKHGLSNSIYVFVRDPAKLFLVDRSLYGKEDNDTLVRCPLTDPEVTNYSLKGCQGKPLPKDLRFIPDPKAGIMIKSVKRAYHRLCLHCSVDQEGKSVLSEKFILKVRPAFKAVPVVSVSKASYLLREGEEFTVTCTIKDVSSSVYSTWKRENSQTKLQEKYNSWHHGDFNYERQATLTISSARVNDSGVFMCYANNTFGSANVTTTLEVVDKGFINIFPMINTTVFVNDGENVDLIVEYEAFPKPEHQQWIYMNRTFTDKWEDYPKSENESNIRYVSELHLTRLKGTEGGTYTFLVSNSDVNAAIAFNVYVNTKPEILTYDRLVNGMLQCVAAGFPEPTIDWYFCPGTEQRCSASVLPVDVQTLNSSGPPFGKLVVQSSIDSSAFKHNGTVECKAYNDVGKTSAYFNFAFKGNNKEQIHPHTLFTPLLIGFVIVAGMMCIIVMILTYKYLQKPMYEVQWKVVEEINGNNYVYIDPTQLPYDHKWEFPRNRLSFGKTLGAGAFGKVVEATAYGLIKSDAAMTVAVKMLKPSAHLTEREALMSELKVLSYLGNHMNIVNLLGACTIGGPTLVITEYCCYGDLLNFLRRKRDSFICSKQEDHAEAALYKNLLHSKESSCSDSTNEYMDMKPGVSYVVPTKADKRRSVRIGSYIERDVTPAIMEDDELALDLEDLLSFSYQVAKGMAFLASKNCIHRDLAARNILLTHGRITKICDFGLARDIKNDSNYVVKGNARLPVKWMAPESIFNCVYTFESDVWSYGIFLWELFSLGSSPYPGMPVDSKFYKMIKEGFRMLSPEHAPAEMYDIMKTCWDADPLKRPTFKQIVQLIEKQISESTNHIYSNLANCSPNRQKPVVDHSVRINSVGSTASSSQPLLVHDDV
Structure (SMILES),melting point [°C],other results
COCC(=O)NC/C=C/c1ccc2ncnc(Nc3ccc(Oc4ccc(C)nc4)c(C)c3)c2c1 [CP-724714],–,"Kd [1, 2]: > 10000 nM"
"CCc1cnc(N2CCN(c3ncnc4ccccc34)CC2)nc1 [Compound 3, 4-(4-(5-ethylpyrimidin-2-yl)piperazin-1-yl)quinazoline]",> 250,–
"CCc1cnc(N2CCN(C(=O)c3ccc(CNc4nc(-c5ccccc5)nc5ccccc45)cc3)CC2)nc1 [Compound 21, (4-(5-ethylpyrimidin-2-yl)piperazin-1-yl)(4-((2-phenylquinazolin-4ylamino)methyl)phenyl)methanone]",207 to 208,–
"O=C(c1cccc(Nc2nc(-c3ccccc3)nc3ccccc23)c1)N1CCN(c2ncc(Cc3ccccc3)cn2)CC1 [Compound 22, (4-(5-benzylpyrimidin-2-yl)piperazin-1-yl)(3-(2-phenylquinazolin-4ylamino)phenyl)methanone]",214 to 215,–
CCOc1cc2ncc(C#N)c(Nc3ccc(F)c(Cl)c3)c2cc1NC(=O)/C=C/CN(C)C [EKB-569],–,"Kd [1, 2]: > 10000 nM"
Oc1ccc(-c2nc(-c3ccc(F)cc3)c(-c3ccncc3)[nH]2)cc1 [SB-202190],–,"Kd [1, 2]: > 10000 nM"
NC(=O)c1ccc(-c2nc(-c3ccccn3)c(-c3ccc4c(c3)OCO4)[nH]2)cc1 [SB-431542],–,Kd [1]: > 10000 nM

# Further lines, with some results ahead:
melting point [°C],Structure (SMILES),other results
137 to 138,"CCc1cnc(N2CCN(c3nc(-c4ccccc4)nc4ccccc34)CC2)nc1 [Compound 5, 4-(4-(5-ethylpyrimidin-2-yl)piperazin-1-yl)-2-phenylquinazoline]",–
135 to 137,"c1ccc(Cc2cnc(N3CCN(c4nc(-c5ccccc5)nc5ccccc45)CC3)nc2)cc1 [Compound 6, 4-(4-(5-benzylpyrimidin-2-yl)piperazin-1-yl)-2-phenylquinazoline]",–
146 to 147,"CCc1cnc(N2CCN(C(=O)c3cccc(Nc4ncnc5ccccc45)c3)CC2)nc1 [Compound 13, (4-(5-ethylpyrimidin-2-yl)piperazin-1-yl)(3-(quinazolin-4-ylamino)phenyl)methanone]",–
248 to 249,"CCc1cnc(N2CCN(C(=O)c3ccc(Nc4ncnc5ccccc45)cc3)CC2)nc1 [Compound 14, (4-(5-ethylpyrimidin-2-yl)piperazin-1-yl)(4-(quinazolin-4-ylamino)phenyl)methanone]",–
245 to 247,"O=C(c1ccc(Nc2ncnc3ccccc23)cc1)N1CCN(c2ncc(Cc3ccccc3)cn2)CC1 [Compound 17, (4-(5-benzylpyrimidin-2-yl)piperazin-1-yl)(4-(quinazolin-4-ylamino)phenyl)methanone]",–
99 to 101,"O=C(c1ccc(CNc2ncnc3ccccc23)cc1)N1CCN(c2ncc(Cc3ccccc3)cn2)CC1 [Compound 18, (4-(5-benzylpyrimidin-2-yl)piperazin-1-yl)(4-((quinazolin-4-ylamino)methyl)phenyl)methanone]",–
204 to 205,"CCc1cnc(N2CCN(C(=O)c3ccccc3NC3=c4ccccc4=NCN3c3ccccc3)CC2)nc1 [Compound 19, (4-(5-ethylpyrimidin-2-yl)piperazin-1-yl)(2-(3-phenylquinazolin-4-ylamino)phenyl)methanone]",–
> 250,"CCc1cnc(N2CCN(C(=O)c3ccccc3NC3(c4ccccc4)NC=Nc4ccccc43)CC2)nc1 (centres unmarked) [Compound 20, (4-(5-ethylpyrimidin-2-yl)piperazin-1-yl)(2-(4-phenylquinazolin-4-ylamino)phenyl)methanone]",–
> 250,"O=C(c1ccc(Nc2nc(-c3ccccc3)nc3ccccc23)cc1)N1CCN(c2ncc(Cc3ccccc3)cn2)CC1 [Compound 23, (4-(5-benzylpyrimidin-2-yl)piperazin-1-yl)(4-(2-phenylquinazolin-4ylamino)phenyl)methanone]",–
216 to 217,"O=C(c1ccc(CNc2nc(-c3ccccc3)nc3ccccc23)cc1)N1CCN(c2ncc(Cc3ccccc3)cn2)CC1 [Compound 24, (4-(5-benzylpyrimidin-2-yl)piperazin-1-yl)(4-((2-phenylquinazolin-4-ylamino)methyl)phenyl)methanone]",–
